Results reported in the supplement of paper PMC11208160.

Assay: recombinant UMI read abundance after kanamycin selection (control-corrected) (log10(CPM+1)); higher = more efficient recombination; extreme values may be limits of the assay; sequences stand for … in AGTGCAGAGAAAATCGGCCAGTTTTCTCTGCCTGCAGTCCGCATGCCGTGGGACCCCTTGGGTTCTAACCTGTTGCCTAGATTTATGCAGCGGACTGCCTTTCTCCCAAAGTGATAAACCGG…AGGTTGGTTTCACT; site = the 11-nt donor
Procedure, shortened: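 Each donor and donor-binding-loop pair was tracked by a 12-nt UMI on a plasmid carrying a promoterless kanamycin gene. With a second plasmid supplying a fixed target and T7-inducible IS621 bridge recombinase, the pool was plated in Escherichia coli on IPTG (0.07 mM) plus kanamycin or unselected. Sequencing of recombinant UMIs across the donor–target junction gave counts expressed as log10(CPM+1) after replicate averaging and control-derived scaling.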
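Also: IS621 bridge recombinase in Escherichia coli cells against a fixed T5 target plasmid.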

Sequence	recombinant UMI read abundance (log10)
GGATAGTCATGGACCGGTTTTCCCGGTAATCCGTATTTGCC (site GGATAGACTGG)	2.31
GGATAGTCATGGACCGGTTTTCCCGGTAATCCGTATTTGCC (site GGATAGCCTGG)	0
GGATAGTCATGGACCGGTTTTCCCGGTAATCCGTATTTGCC (site GGATAGGCTGG)	0
GGATAGTCATGGACCGGTTTTCCCGGTAATCCGTATTTGCC (site GGATAGTCTGG)	2.79
GGATCATCATGGACCGGTTTTCCCGGTAATCCGTATTTGTG (site GGATCATCTCA)	0.926
GGATCGACATGGACCGGTTTTCCCGGTAATCCGTATTTGCC (site GGATAGACTGG)	1.48
GGATCGACATGGACCGGTTTTCCCGGTAATCCGTATTTGCC (site GGATCGACTGG)	1.28
GGATCGACATGGACCGGTTTTCCCGGTAATCCGTATTTGCC (site GGATGGACTGG)	0
GGATCGACATGGACCGGTTTTCCCGGTAATCCGTATTTGCC (site GGATTGACTGG)	0
GGATCGCCATGGACCGGTTTTCCCGGTAATCCGTATTTGCG (site GGATCGCCTCG)	0.0649
GGATGGACATGGACCGGTTTTCCCGGTAATCCGTATTTGCC (site GGATAGACTGG)	2.17
GGATGGACATGGACCGGTTTTCCCGGTAATCCGTATTTGCC (site GGATCGACTGG)	0
GGATGGACATGGACCGGTTTTCCCGGTAATCCGTATTTGCC (site GGATGGACTGG)	2.47
GGATGGACATGGACCGGTTTTCCCGGTAATCCGTATTTGCC (site GGATTGACTGG)	0
GGATGGCCATGGACCGGTTTTCCCGGTAATCCGTATTTGCA (site GAATGGCCTTG)	0
GGATGGCCATGGACCGGTTTTCCCGGTAATCCGTATTTGCA (site GCATGGCCTTG)	0
GGATGGCCATGGACCGGTTTTCCCGGTAATCCGTATTTGCA (site GGATGGCCTTG)	0.0128
GGATGGCCATGGACCGGTTTTCCCGGTAATCCGTATTTGCA (site GTATGGCCTTG)	0
GGATTCGCATGGACCGGTTTTCCCGGTAATCCGTATTTGCG (site GGATTCGCTCG)	0.0184
GGATTGACATGGACCGGTTTTCCCGGTAATCCGTATTTGTT (site GGATTGACTAA)	0.888
GGCAAAACATGGACCGGTTTTCCCGGTAATCCGTATTTGTT (site GGCAAAACTAA)	0.56
GGCAAGCCATGGACCGGTTTTCCCGGTAATCCGTATTTGAA (site GGCAAACCTTT)	0
GGCAAGCCATGGACCGGTTTTCCCGGTAATCCGTATTTGAA (site GGCAACCCTTT)	0
GGCAAGCCATGGACCGGTTTTCCCGGTAATCCGTATTTGAA (site GGCAAGCCTTT)	0.247
GGCAAGCCATGGACCGGTTTTCCCGGTAATCCGTATTTGAA (site GGCAATCCTTT)	0

Sequence	recombinant UMI read abundance (log10)
GGCAATGCATGGACCGGTTTTCCCGGTAATCCGTATTTGAA (site GGCAATACTTT)	0
GGCAATGCATGGACCGGTTTTCCCGGTAATCCGTATTTGAA (site GGCAATCCTTT)	0
GGCAATGCATGGACCGGTTTTCCCGGTAATCCGTATTTGAA (site GGCAATGCTTT)	1.26
GGCAATGCATGGACCGGTTTTCCCGGTAATCCGTATTTGAA (site GGCAATTCTTT)	0.536
GGCATATCATGGACCGGTTTTCCCGGTAATCCGTATTTGCA (site GGCATATCTTG)	1.57
GGCCACCCATGGACCGGTTTTCCCGGTAATCCGTATTTGTC (site GGCCACCCTAA)	0.133
GGCCACCCATGGACCGGTTTTCCCGGTAATCCGTATTTGTC (site GGCCACCCTCA)	0.0127
GGCCACCCATGGACCGGTTTTCCCGGTAATCCGTATTTGTC (site GGCCACCCTGA)	0
GGCCACCCATGGACCGGTTTTCCCGGTAATCCGTATTTGTC (site GGCCACCCTTA)	0.0183
GGCCACCCATGGACCGGTTTTCCCGGTAATCCGTATTTGTT (site AGCCACCCTAA)	0.0306
GGCCACCCATGGACCGGTTTTCCCGGTAATCCGTATTTGTT (site CGCCACCCTAA)	0.181
GGCCACCCATGGACCGGTTTTCCCGGTAATCCGTATTTGTT (site GACCACCCTAA)	0.018
GGCCACCCATGGACCGGTTTTCCCGGTAATCCGTATTTGTT (site GCCCACCCTAA)	0.0196
GGCCACCCATGGACCGGTTTTCCCGGTAATCCGTATTTGTT (site GGACACCCTAA)	0.0221
GGCCACCCATGGACCGGTTTTCCCGGTAATCCGTATTTGTT (site GGCAACCCTAA)	0.00185
GGCCACCCATGGACCGGTTTTCCCGGTAATCCGTATTTGTT (site GGCCAACCTAA)	0.0287
GGCCACCCATGGACCGGTTTTCCCGGTAATCCGTATTTGTT (site GGCCACACTAA)	0.0112
GGCCACCCATGGACCGGTTTTCCCGGTAATCCGTATTTGTT (site GGCCACCCTAA)	0.0168
GGCCACCCATGGACCGGTTTTCCCGGTAATCCGTATTTGTT (site GGCCACCCTAC)	0.0176
GGCCACCCATGGACCGGTTTTCCCGGTAATCCGTATTTGTT (site GGCCACCCTAG)	0
GGCCACCCATGGACCGGTTTTCCCGGTAATCCGTATTTGTT (site GGCCACCCTAT)	0.0103
GGCCACCCATGGACCGGTTTTCCCGGTAATCCGTATTTGTT (site GGCCACCCTCA)	0
GGCCACCCATGGACCGGTTTTCCCGGTAATCCGTATTTGTT (site GGCCACCCTGA)	0
GGCCACCCATGGACCGGTTTTCCCGGTAATCCGTATTTGTT (site GGCCACCCTTA)	0.00548
GGCCACCCATGGACCGGTTTTCCCGGTAATCCGTATTTGTT (site GGCCACGCTAA)	0.0127

Sequence	recombinant UMI read abundance (log10)
GGCCACCCATGGACCGGTTTTCCCGGTAATCCGTATTTGTT (site GGCCACTCTAA)	0.00279
GGCCACCCATGGACCGGTTTTCCCGGTAATCCGTATTTGTT (site GGCCAGCCTAA)	0
GGCCACCCATGGACCGGTTTTCCCGGTAATCCGTATTTGTT (site GGCCATCCTAA)	0.0127
GGCCACCCATGGACCGGTTTTCCCGGTAATCCGTATTTGTT (site GGCCCCCCTAA)	0.0711
GGCCACCCATGGACCGGTTTTCCCGGTAATCCGTATTTGTT (site GGCCGCCCTAA)	0.0085
GGCCACCCATGGACCGGTTTTCCCGGTAATCCGTATTTGTT (site GGCCTCCCTAA)	0.0064
GGCCACCCATGGACCGGTTTTCCCGGTAATCCGTATTTGTT (site GGCGACCCTAA)	0.0156
GGCCACCCATGGACCGGTTTTCCCGGTAATCCGTATTTGTT (site GGCTACCCTAA)	0.031
GGCCACCCATGGACCGGTTTTCCCGGTAATCCGTATTTGTT (site GGGCACCCTAA)	0.0781
GGCCACCCATGGACCGGTTTTCCCGGTAATCCGTATTTGTT (site GGTCACCCTAA)	0.0101
GGCCACCCATGGACCGGTTTTCCCGGTAATCCGTATTTGTT (site GTCCACCCTAA)	0.0225
GGCCACCCATGGACCGGTTTTCCCGGTAATCCGTATTTGTT (site TGCCACCCTAA)	0.0158
GGCCACTCATGGACCGGTTTTCCCGGTAATCCGTATTTGTT (site GGCCACACTAA)	0.0252
GGCCACTCATGGACCGGTTTTCCCGGTAATCCGTATTTGTT (site GGCCACCCTAA)	0.00888
GGCCACTCATGGACCGGTTTTCCCGGTAATCCGTATTTGTT (site GGCCACGCTAA)	0.00402
GGCCACTCATGGACCGGTTTTCCCGGTAATCCGTATTTGTT (site GGCCACTCTAA)	1.33
GGCCAGACATGGACCGGTTTTCCCGGTAATCCGTATTTGAC (site GGCCAGACTGT)	0.867
GGCCAGGCATGGACCGGTTTTCCCGGTAATCCGTATTTGTT (site GGCCAGGCTAA)	0.00326
GGCCCAACATGGACCGGTTTTCCCGGTAATCCGTATTTGTA (site GGACCAACTTA)	0.0271
GGCCCAACATGGACCGGTTTTCCCGGTAATCCGTATTTGTA (site GGCCCAACTTA)	0.848
GGCCCAACATGGACCGGTTTTCCCGGTAATCCGTATTTGTA (site GGGCCAACTTA)	0
GGCCCAACATGGACCGGTTTTCCCGGTAATCCGTATTTGTA (site GGTCCAACTTA)	0.00413
GGCCCACCATGGACCGGTTTTCCCGGTAATCCGTATTTGTG (site GGCCCACCTCA)	0.0252
GGCCCCGCATGGACCGGTTTTCCCGGTAATCCGTATTTGAT (site GGCCCCGCTAT)	1.24
GGCCCGCCATGGACCGGTTTTCCCGGTAATCCGTATTTGAA (site GGCCCGCCTTT)	0
